From patent US11419843B2, “Small molecule BCL-2 functional converters as cancer therapeutics” (Oregon State University, priority 2016, dated 2022)

Assays:
[1] = system: MDA-MB-468 parental and paclitaxel resistant cells; assay: Clonogenic survival of MDA-MB-468 parental and resistant cells; type: cell-based, human; settings: treated continuously for 14 days
Excerpt: FIG. 29B is the results of clonogenic survival assays in MDA-MB-468 parental and resistant cells treated continuously for 14 days with vehicle, or indicated concentration of paclitaxel. Colony forming ability (%) relative to vehicle treatment. Representative of three independent assays conducted in triplicate.

[2] = system: H460 parental and resistant cells; assay: Annexin-V apoptosis assay in H460 parental and resistant cells; type: cell-based, human; settings: BFC1108 20 μM, 48 hours
Experimental: FIG. 25E is the results of Annexin-V apoptosis assay in H460 cells treated for 48 hours with vehicle or paclitaxel 10 nM, quantification right panel.
Cells were seeded into 6 well tissue culture plates to give approximately 50% confluence and allowed to attach overnight. The cells were then treated for a period of time indicated in figure legend with the appropriate compound at various concentrations (see figure legends). An Annexin V-conjugate PerCP-eFluor 710 apoptosis detection kit was used as described by the manufacturer's protocol (eBioscience 88-8008). Harvesting of cells included collection of floating and attached cells following trypsinization. Data were acquired using an CytoFLEX S flow cytometer (Beckman Coulter, Brea, Calif.) and 10,000 events on the PC5.5 channel were analyzed using CytExpert software (Beckman Coulter). For Nur77 GFP tagged annexin V analysis, GFP positive population were selected and then Annexin V+population was determined. For each sample, 10,000 GFP+ events were collected. Annexin V positive cell population was considered to be the apoptotic population, and the percent of annexin V positive cell population was used to determine the extent of apoptosis.

[3] = system: MDA-MB-468 parental and derived paclitaxel or doxorubicin resistant cells; assay: Viability of MDA-MB-468 parental and derived resistant cells; type: cell-based, human
Experimental: Percentage viability relative to vehicle treatment. Representative of three independent assays in triplicate.
Percentage viability relative to vehicle treatment.
Percentage viability relative to vehicle treatment. Representative of three independent assays conducted in triplicate.
Cells of interest were plated at 2000 cells per well in 96-well black tissue culture plate and allowed to adhere to the plate overnight. Viability assays were performed using 10% serum medium unless otherwise stated. Drugs were diluted in supplemented tissue culture medium and added at increasing concentrations, with DMSO as a vehicle control. Cells were then incubated for either 48 hour or 72 hours in presence of the compound, Promega Titer Glo was added to the wells at the assay end point according to manufacturer's protocol. Luminescence was measured using Tropix TR717 Microplate luminometer. Percentage of viable cells is relative to vehicle (100%). As a complementary viability assay, eBioscience Fixable Viability Dye eFluor 660(65-0864) was used to stain dead cells and analyzed using flow cytometry.

[4] = low dose; cited from earlier work
WT and Bcl-2−/− MEFs = assay: Viability of WT and Bcl-2-/- MEFs; type: cell-based, mouse; settings: indicated concentrations, 10% FBS
Experimental: FIG. 9E depicts effect of methotrexate in certain cancer cell types. Left Panel: Bcl-2 levels in WT and Bcl-2−/− MEFs. Right panel: MEF cells were exposed to indicated concentrations of Methotrexate in medium containing 10% FBS and viability was determined by cell titer glo assay.
Cell viability was determined using CellTiter Glo Luminescent Cell Viability Assay (Promega, Madison, Wis.) as per manufacturer instructions. DAPI stain was used to assess apoptosis. Colony forming assays were performed as described previously.

[5] = system: MDA-MB-231 cells with or without Bcl-2 expression vector; assay: Transwell matrigel invasion assay; type: cell-based, human; settings: 10 μM, 16 h
Experimental: FIG. 10F is MDA-MB231 cells with or without Bcl-2 expression vector were treated with 10 μM MTX or vehicle in a matrigel invasion chamber for 16 h and the membrane was then fixed, stained and number of cells invaded counted.
Invasion assay was performed using BD transwell invasion assay kit. MDA-MB-231 cells were treated for 16 h at 10 μM concentration and membrane was stained with prolong anti-fade DAPI stain and number of cells invaded were counted under a fluorescent microscope.

[6] = system: paclitaxel resistant H460 cells; assay: Zebrafish xenograft model; type: in vivo, Zebrafish (Danio rerio); settings: 1 to 4 days post injection
Experimental: Total area signifies total h460 cell area in zebrafish.
Zebrafish (Danio rerio) were housed at the Sinnhuber Aquatic Research Laboratory at Oregon State University in accordance with Institutional Animal Care and Use Committee protocols. Adult 5D Tropical zebrafish were maintained under standard laboratory conditions of 28±1° C. on a 14 hr light/10 hr dark photoperiod in fish water consisting of reverse osmosis water supplemented with a commercially available salt solution (0.6%, Instant Ocean, UnitedPet Group, Inc., Blacksburg, Va., USA). Collected eggs were staged according to Kimmel et al. At 24 hours post fertilization (hpf), zebrafish embryos were maintained in E3 media with phenylthiourea (0.003%, Sigma, USA).
For transplantations, H460 cells were labeled with a CM-DiI dye (Thermo Fisher Sci.) according to the manufacturer's protocol and suspended to a concentration of 2×10^7 cells/mL. […]
For imaging, zebrafish xenografts were anesthetized by emersion in 0.2 mg/mL Tricaine E3 media and imbedded in 0.8% (w/v) low melting point agarose on a glass bottom 96-well plate. […] H460 cancer growth was analyzed using Fiji (Fiji is Just Imagej) software. […] Cancer area was calculated by creating a binary mask from thresholds with the Otsu algorithm and calculating the total area of the resulting segmented objects. […]

For `CCOc1ccccc1NC(=O)c1cc(Cl)ccc1NC(=O)c1ccc(OC)cc1` [BFC1108, 5-chloro-N-(2-ethoxyphenyl)-2-[(4-methoxybenzoyl)amino]-benzamide], the “Colony forming ability of MDA-MB-468 paclitaxel resistant cells” value [1] was “reduced colony forming ability of the paclitaxel resistant cells”, the “Induction of apoptosis (Annexin V), H460 resistant vs parental” value [2] was “induced apoptosis in the resistant line preferentially” and the “Viability of MDA-MB-468 doxorubicin resistant cells” value ([3]; 72 hour treatment) was “reduced viability of doxorubicin resistant cells”. For the same compound, the “Viability of MDA-MB-468 paclitaxel resistant vs parental cells” value ([3]; 72 hours) was “preferentially killed by BFC1108 in a dose dependent manner”.

For `CN(Cc1cnc2nc(N)nc(N)c2n1)c1ccc(C(=O)N[C@@H](CCC(=O)O)C(=O)O)cc1` [MTX, (2S)-2-[[4-[(2,4 diaminopteridin-6-yl)methylmethylamino]benzoyl]amino] pentanedioc acid], the bioavailability [4] is listed as ≤ 70%, the “Bcl-2 dependent induction of apoptosis in MEFs with or without Bcl-2” value (WT and Bcl-2−/− MEFs) is listed as “Bcl-2 dependent induction of apoptosis by MTX was also seen in mouse embryonic fibroblast cells with or without Bcl-2” and the “Invasive potential of Bcl-2 over-expressing cells vs vector controls” value [5] is listed as “inhibited the invasive potential of Bcl-2 over-expressing cells”. The “Growth of paclitaxel resistant H460 cells in zebrafish” value [6] was “reduction in paclitaxel resistant H460 growth in vivo”.
